Data on 6 compounds can be found in ChEMBL document CHEMBL5316348, “Targeting the Epidermal Growth Factor Receptor with Molecular Degraders: State-of-the-Art and Future Opportunities” (J Med Chem, 2023).

For data set [1], the system named is Protein cereblon/Epidermal growth factor receptor (Homo sapiens), P00533+Q96SW2 [L858R,T790M]. Put plainly: Protac activity at CRBN/EGFR L858R/T790M double mutant in mouse BaF3 cells assessed as induction of protein degradation at 0.1 uM measured after 24 hrs by Western blot analysis relative to control. It counts as cell-based.
In data set [2] the target is T1, Protein cereblon/Epidermal growth factor receptor (Homo sapiens, UniProt P00533+Q96SW2). Put plainly: Protac activity at CRBN/wild type EGFR in human A549 cells assessed as induction of EGFR degradation at 100 nM measured after 72 hrs by Western blot analysis relative to control. Type of data set: cell-based. (In general: In western blotting, separated proteins are transferred to a membrane and probed.)

Data set [3] has as its target T1, Protein cereblon/Epidermal growth factor receptor. Put plainly: Protac activity at CRBN/wild type EGFR in human A549 cells assessed as induction of EGFR degradation incubated for 48 hrs by Western blot analysis. It counts as cell-based.
In data set [4] the target is T2, von Hippel-Lindau disease tumor suppressor/Epidermal growth factor receptor (Homo sapiens, UniProt P00533+P40337). Put plainly: Protac activity at VHL/EGFR deletion19 mutant in human HCC827 cells assessed as induction of protein degradation. Type of data set: cell-based.
For data set [5], the system named is von Hippel-Lindau disease tumor suppressor/Epidermal growth factor receptor (Homo sapiens), P00533+P40337 [UNDEFINED MUTATION]. Put plainly: Protac activity at VHL/EGFR deletion19 mutant in human HCC827 cells assessed as induction of protein degradation by measuring maximal efficacy relative to control. It counts as cell-based.
Data set [6] in a line: Oral bioavailability in mouse at 10 mg/kg. Type of data set: ADME, organism-based. Conditions: in vivo.
Data set [7] deals with BaF3. Put plainly: Antitumor activity against mouse BaF3 cells expressing EGFR deletion19/T790M/C797S triple mutant implanted in […] BALB/c nude mouse model assessed as reduction in tumor volume at 40 mg/kg, po relative to control. It counts as functional. Also on record: scale not given: the % may be the effect or the level left.
Data set [8] concerns BaF3. Put plainly: Antitumor activity against mouse BaF3 cells expressing EGFR deletion19/T790M/C797S triple mutant implanted in CDX BALB/c nude mouse model assessed as reduction in tumor volume at 40 mg/kg, po relative to control. Also on record: scale not given: the % may be the effect or the level left. It counts as functional.
Data set [9] has as its system von Hippel-Lindau disease tumor suppressor/Epidermal growth factor receptor (Homo sapiens), P00533+P40337 [L858R]. The data set is described as follows: Protac activity at VHL/EGFR L858R mutant in human NCI-H3255 cells assessed as induction of protein degradation by measuring maximal efficacy incubated for 24 hrs by immunoblotting analysis relative to control. Type of data set: cell-based.

For data set [10], the target named is von Hippel-Lindau disease tumor suppressor/Epidermal growth factor receptor (Homo sapiens, UniProt P00533+P40337, L858R). Put plainly: Protac activity at VHL/EGFR L858R mutant in human NCI-H3255 cells assessed as induction of protein degradation incubated for 24 hrs by immunoblotting analysis. Type of data set: cell-based.
The subject of data set [11] is von Hippel-Lindau disease tumor suppressor/Epidermal growth factor receptor (Homo sapiens), P00533+P40337 [UNDEFINED MUTATION]. The data set is described as follows: Protac activity at VHL/EGFR deletion19 mutant in human HCC827 cells assessed as induction of protein degradation by measuring maximal efficacy incubated for 24 hrs by immunoblotting analysis relative to control. Type of data set: cell-based.

Data set [12] deals with T2, von Hippel-Lindau disease tumor suppressor/Epidermal growth factor receptor. The data set is described as follows: Protac activity at VHL/EGFR deletion19 mutant in human HCC827 cells assessed as induction of protein degradation incubated for 24 hrs by immunoblotting analysis. Type of data set: cell-based.
Data set [13] has as its target Epidermal growth factor receptor (Homo sapiens, UniProt P00533). Put plainly: Inhibition of wild type EGFR (unknown origin) preincubated for 5 mins followed by substrate and ATP addition and further incubated for 30 mins by HTRF assay. On the technique in general: Time-resolved FRET reads energy transfer from a long-lived donor to a nearby acceptor.
For data set [14], the target named is Epidermal growth factor receptor (Homo sapiens, UniProt P00533, T790M).
Sequence of Epidermal growth factor receptor (Homo sapiens, UniProt P00533, T790M) (P00533 25-1210 T790M limits assumed): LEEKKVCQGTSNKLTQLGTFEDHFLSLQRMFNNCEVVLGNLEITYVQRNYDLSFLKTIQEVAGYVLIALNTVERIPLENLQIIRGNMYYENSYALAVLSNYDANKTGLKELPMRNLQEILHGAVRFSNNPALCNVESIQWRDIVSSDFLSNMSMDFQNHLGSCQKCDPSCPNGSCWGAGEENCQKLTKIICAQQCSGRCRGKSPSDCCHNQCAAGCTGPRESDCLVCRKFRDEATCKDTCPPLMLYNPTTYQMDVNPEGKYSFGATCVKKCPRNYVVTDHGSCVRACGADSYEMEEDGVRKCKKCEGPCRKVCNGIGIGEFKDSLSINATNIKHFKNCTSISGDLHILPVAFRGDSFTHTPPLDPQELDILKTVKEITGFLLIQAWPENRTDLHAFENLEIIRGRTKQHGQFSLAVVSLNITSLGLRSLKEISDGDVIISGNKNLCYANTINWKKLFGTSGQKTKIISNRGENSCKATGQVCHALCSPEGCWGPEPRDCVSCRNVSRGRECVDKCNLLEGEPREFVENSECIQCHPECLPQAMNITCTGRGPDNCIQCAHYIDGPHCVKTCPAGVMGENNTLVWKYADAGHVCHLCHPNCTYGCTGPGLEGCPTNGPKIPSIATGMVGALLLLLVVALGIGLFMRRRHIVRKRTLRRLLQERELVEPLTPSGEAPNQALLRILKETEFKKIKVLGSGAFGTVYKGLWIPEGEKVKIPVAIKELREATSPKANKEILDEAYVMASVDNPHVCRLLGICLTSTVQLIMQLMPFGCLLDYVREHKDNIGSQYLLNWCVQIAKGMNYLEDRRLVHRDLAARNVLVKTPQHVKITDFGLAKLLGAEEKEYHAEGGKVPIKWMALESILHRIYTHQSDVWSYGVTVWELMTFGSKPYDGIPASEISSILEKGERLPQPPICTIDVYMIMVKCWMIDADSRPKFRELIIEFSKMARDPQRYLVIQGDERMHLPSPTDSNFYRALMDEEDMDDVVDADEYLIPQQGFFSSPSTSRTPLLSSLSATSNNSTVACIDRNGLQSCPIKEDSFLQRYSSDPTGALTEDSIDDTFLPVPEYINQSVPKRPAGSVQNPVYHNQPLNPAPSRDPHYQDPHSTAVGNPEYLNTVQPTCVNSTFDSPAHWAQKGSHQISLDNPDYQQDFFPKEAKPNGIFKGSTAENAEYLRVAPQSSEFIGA

Sequence of von Hippel-Lindau disease tumor suppressor/Epidermal growth factor receptor (Homo sapiens), P00533+P40337 [UNDEFINED MUTATION] (P00533 whole entry, looked up, stated change not applied): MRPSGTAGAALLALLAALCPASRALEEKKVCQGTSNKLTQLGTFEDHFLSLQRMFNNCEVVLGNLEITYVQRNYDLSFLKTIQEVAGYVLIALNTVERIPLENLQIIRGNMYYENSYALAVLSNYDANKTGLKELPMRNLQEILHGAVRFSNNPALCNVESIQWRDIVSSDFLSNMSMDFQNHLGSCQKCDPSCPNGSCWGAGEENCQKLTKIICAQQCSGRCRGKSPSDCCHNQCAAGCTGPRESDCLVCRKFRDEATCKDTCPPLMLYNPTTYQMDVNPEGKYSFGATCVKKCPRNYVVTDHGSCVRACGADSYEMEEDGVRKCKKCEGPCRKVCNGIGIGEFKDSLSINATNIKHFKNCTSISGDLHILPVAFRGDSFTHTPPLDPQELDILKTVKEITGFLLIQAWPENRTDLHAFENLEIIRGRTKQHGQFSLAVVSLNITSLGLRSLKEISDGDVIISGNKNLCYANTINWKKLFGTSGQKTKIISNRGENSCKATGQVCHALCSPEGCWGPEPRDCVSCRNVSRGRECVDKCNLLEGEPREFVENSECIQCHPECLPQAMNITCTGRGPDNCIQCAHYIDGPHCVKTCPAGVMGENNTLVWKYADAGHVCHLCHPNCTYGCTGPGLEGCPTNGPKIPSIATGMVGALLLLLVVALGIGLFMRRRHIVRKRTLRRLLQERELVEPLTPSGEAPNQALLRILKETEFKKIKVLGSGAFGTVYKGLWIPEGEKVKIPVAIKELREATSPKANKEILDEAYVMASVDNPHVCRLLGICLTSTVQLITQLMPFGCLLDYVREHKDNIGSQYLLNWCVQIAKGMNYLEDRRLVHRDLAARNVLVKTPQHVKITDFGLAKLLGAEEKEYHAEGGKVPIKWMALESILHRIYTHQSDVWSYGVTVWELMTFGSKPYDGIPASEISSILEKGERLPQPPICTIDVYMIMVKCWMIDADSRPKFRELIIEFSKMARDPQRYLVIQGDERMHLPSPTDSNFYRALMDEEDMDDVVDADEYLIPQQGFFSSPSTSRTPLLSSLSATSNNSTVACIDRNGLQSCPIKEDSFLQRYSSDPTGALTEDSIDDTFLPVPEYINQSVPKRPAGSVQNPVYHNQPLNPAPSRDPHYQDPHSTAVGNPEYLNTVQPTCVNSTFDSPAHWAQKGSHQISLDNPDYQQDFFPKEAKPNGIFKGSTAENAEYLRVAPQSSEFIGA
Sequence of von Hippel-Lindau disease tumor suppressor/Epidermal growth factor receptor (Homo sapiens), P00533+P40337 [UNDEFINED MUTATION] (P40337 whole entry, looked up, stated change not applied): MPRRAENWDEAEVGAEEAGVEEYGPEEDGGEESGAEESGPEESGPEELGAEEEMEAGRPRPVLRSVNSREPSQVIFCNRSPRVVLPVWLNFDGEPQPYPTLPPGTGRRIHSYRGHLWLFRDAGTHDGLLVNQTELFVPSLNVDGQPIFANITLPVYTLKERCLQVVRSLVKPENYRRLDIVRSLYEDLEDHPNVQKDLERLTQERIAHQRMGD
T2 sequence (P00533 25-1210 limits assumed, stated change not applied): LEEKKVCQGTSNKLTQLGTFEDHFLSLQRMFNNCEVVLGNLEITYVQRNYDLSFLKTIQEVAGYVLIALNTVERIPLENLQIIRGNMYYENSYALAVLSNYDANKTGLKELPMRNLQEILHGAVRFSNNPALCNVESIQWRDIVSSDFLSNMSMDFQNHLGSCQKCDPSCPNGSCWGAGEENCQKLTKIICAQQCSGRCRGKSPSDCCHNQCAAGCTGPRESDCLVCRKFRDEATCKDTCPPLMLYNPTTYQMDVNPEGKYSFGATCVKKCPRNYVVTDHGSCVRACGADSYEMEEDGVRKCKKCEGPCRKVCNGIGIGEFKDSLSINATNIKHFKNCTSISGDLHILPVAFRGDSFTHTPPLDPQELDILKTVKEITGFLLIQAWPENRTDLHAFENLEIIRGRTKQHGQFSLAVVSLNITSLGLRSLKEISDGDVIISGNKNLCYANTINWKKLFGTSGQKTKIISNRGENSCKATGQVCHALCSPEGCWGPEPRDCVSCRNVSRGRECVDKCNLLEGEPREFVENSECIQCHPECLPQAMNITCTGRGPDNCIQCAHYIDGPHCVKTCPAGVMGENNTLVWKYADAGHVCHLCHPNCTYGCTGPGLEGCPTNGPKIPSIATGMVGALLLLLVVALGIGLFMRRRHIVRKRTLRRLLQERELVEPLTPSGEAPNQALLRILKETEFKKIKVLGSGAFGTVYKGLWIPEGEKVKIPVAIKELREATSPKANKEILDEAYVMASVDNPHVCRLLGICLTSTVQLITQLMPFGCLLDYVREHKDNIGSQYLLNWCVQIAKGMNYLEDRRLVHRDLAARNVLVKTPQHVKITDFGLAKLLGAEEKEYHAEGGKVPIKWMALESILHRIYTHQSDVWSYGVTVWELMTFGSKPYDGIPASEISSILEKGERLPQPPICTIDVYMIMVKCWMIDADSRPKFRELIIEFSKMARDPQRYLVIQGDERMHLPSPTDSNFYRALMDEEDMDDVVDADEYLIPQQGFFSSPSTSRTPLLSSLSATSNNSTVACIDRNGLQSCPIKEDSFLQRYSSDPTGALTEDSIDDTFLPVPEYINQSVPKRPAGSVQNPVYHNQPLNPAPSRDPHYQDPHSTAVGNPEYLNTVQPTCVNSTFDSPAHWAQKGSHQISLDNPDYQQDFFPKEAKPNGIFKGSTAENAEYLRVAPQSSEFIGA
T2 sequence (P40337 whole entry, stated change not applied): as the sequence (P40337 whole entry, looked up, stated change not applied) above
Sequence of Epidermal growth factor receptor (Homo sapiens, UniProt P00533) (P00533 whole entry): as the sequence (P00533 whole entry, looked up, stated change not applied) above

With `O=C1CCC(N2C(=O)c3cccc(NCCOCCOCCOCCN4CCN(c5ccc(-c6ccc7c(c6)C(=O)N(C(C(=O)Nc6nccs6)c6ccccc6)C7)cn5)CC4)c3C2=O)C(=O)N1` (centres undefined), the Emax in data set [1] stood at 56%.
`Cn1c(=O)c(C(=O)NNCCOCCOCC(=O)Nc2cccc3c2C(=O)N(C2CCC(=O)NC2=O)C3=O)nc2ccccc21` (centres undefined): the Emax in [2] is 96%. In addition, in data set [3], the EC50 came out at 0.0329 µM.
Turning to `Cc1ncsc1-c1ccc(CNC(=O)[C@@H]2C[C@@H](O)CN2C[C@@H](NC(=O)CCCCCCCCCCn2cc(COc3cc4ncnc(Nc5ccc(F)c(Cl)c5)c4cc3NC(=O)/C=C/CN3CCCCC3)nn2)C(C)(C)C)cc1`, the EC50 in data set [4] turned out to be 0.00357 µM. Moreover, the Emax in data set [5] came to 91%.
The compound `COc1cc(N2CCC(N3CCN(CCC#Cc4cccc5c4CN(C4CCC(=O)NC4=O)C5=O)CC3)CC2)ccc1Nc1ncc(Cl)c(Nc2ccccc2P(C)(C)=O)n1` (centres undefined) returned a bioavailability in [6] of 62.8%. The Activity in the data set with BaF3 [7] is listed as 67%; in the data set on BaF3 [8], 84%.
In the case of `COc1cc2ncnc(Nc3ccc(F)c(Cl)c3)c2cc1OCCCCCOCCOCCC(=O)N[C@H](C(=O)N1C[C@H](O)C[C@H]1C(=O)NCc1ccc(-c2scnc2C)cc1)C(C)(C)C`, the Emax amounted to 96.6% in data set [9] and 98.9% in data set [11]. Further, the results for the EC50 in data set [10] and in [12] were 0.0223 µM and 0.0117 µM, respectively.
On to `CN1C(=O)C(C(=O)NN)N(C)c2ccccc21` (centres undefined), for which the IC50 in data set [13] worked out at 0.1 µM; in data set [14], 4.02 µM.

A word on the EC50: it is the midpoint of the concentration-response curve. For orientation: bioavailability means the share of a dose that reaches the circulation, judged against a reference dose that is usually intravenous. Broadly, the IC50 is the concentration that inhibits the measured activity by half.
